Several values for one entry are separate records, joined by “and”; a condition that tells them apart may be missing. Identical values can stand only once. Toxic doses and inconclusive results are not listed.
System: L1210 leukemia ip in BDF1 mice, survival T/C
Assay: NCI In Vivo Anticancer Drug Screen. Data for tumor model L1210 Leukemia (intraperitoneal) in B6D2F1 (BDF1) mice
Conditions: endpoint: mean survival time, higher = longer survival
Method in brief: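 Transplantable tumor model; survival measured in treated vs vehicle control mice. Value = treated/control.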

[1] = dose: 100.0 mg/kg/injection, schedule: Q01DX009 (ip), vehicle: saline with Tween-80
[2] = dose: 200.0 mg/kg/injection, schedule: Q01DX009 (ip), vehicle: saline with Tween-80
[3] = dose: 100.0 mg/kg/injection, schedule: Q04DX003 (ip), vehicle: Klucel (hydroxypropylcellulose) (HPC)
[4] = dose: 200.0 mg/kg/injection, schedule: Q04DX003 (ip), vehicle: Klucel (hydroxypropylcellulose) (HPC)
[5] = dose: 400.0 mg/kg/injection, schedule: Q04DX003 (ip), vehicle: Klucel (hydroxypropylcellulose) (HPC)
[6] = dose: 100.0 mg/kg/injection, schedule: Q01DX009 (ip), vehicle: Klucel (hydroxypropylcellulose) (HPC)
[7] = dose: 200.0 mg/kg/injection, schedule: Q01DX009 (ip), vehicle: Klucel (hydroxypropylcellulose) (HPC)
[8] = dose: 100.0 mg/kg/injection, schedule: Q04DX003 (ip), vehicle: saline with Tween-80
[9] = dose: 50.0 mg/kg/injection, schedule: Q01DX009 (ip), vehicle: Klucel (hydroxypropylcellulose) (HPC)
[10] = dose: 400.0 mg/kg/injection, schedule: Q01DX009 (ip), vehicle: Klucel (hydroxypropylcellulose) (HPC)

Nc1cccc(OCc2cccc([N+](=O)[O-])c2)c1
T/C (dose: 100.0 mg/kg/injection, schedule: Q01DX001 (ip), vehicle: carboxymethylcellulose (CMC)): 101 % of control | T/C (dose: 200.0 mg/kg/injection, schedule: Q01DX001 (ip), vehicle: carboxymethylcellulose (CMC)): 90 % of control | T/C (dose: 400.0 mg/kg/injection, schedule: Q01DX001 (ip), vehicle: carboxymethylcellulose (CMC)): 86 % of control

CCCCCCCCCCOC(=O)C[n+]1cccc(C(=O)Nc2ccc(Cl)cc2)c1
T/C (dose: 12.5 mg/kg/injection, schedule: Q04DX003 (ip), vehicle: saline): 97 % of control | T/C (dose: 25.0 mg/kg/injection, schedule: Q04DX003 (ip), vehicle: saline): 105 % of control | T/C (dose: 50.0 mg/kg/injection, schedule: Q04DX003 (ip), vehicle: saline): 90 % of control

O=C1CCCCC1C(O)(C(=O)c1ccccc1)c1ccccc1 (stereo not given) (tested in a mixture with another compound)
T/C (dose: 50.0 mg/kg/injection, schedule: Q01DX009 (ip), vehicle: saline with Tween-80): 97 % of control | T/C [1]: 87 % of control | T/C [2]: 91 % of control

Nc1cc2oc3ccccc3c2c2cccnc12
T/C (dose: 100.0 mg/kg/injection, schedule: Q01DX001 (ip), vehicle: Klucel (hydroxypropylcellulose) (HPC)): 103 % of control | T/C [3]: 106 % of control | T/C (dose: 200.0 mg/kg/injection, schedule: Q01DX001 (ip), vehicle: Klucel (hydroxypropylcellulose) (HPC)): 100 % of control | T/C [4]: 103 % of control | T/C (dose: 400.0 mg/kg/injection, schedule: Q01DX001 (ip), vehicle: Klucel (hydroxypropylcellulose) (HPC)): 91 % of control | T/C [5]: 103 % of control

O=C(Nc1ccc([N+](=O)[O-])cc1)c1cc(Cl)c2ccccc2c1O
T/C [6]: 106 % of control | T/C [7]: 98 % of control

CC(C)=CCCC(C)CCOC(N)=O (stereo not given)
T/C (dose: 100.0 mg/kg/injection, schedule: Q04DX002 (ip), vehicle: saline with Tween-80): 104 % of control | T/C (dose: 200.0 mg/kg/injection, schedule: Q04DX002 (ip), vehicle: saline with Tween-80): 111 % of control

CN=C(c1ccc(NC(=O)c2ccc(C(=O)Nc3ccc(C(=NC)N(C)C)cc3)cc2)cc1)N(C)C
T/C (dose: 0.94 mg/kg/injection, schedule: Q01DX Z (ip), vehicle: saline): 94 % of control | T/C (dose: 1.88 mg/kg/injection, schedule: Q01DX Z (ip), vehicle: saline): 101 % of control | T/C (dose: 3.75 mg/kg/injection, schedule: Q01DX Z (ip), vehicle: saline): 97 % of control | T/C (dose: 7.5 mg/kg/injection, schedule: Q01DX Z (ip), vehicle: saline): 111 % of control

CCOC(=O)c1ccc(NC(=S)NC(=O)c2cccc([N+](=O)[O-])c2)cc1
T/C (dose: 50.0 mg/kg/injection, schedule: Q01DX001 (ip), vehicle: saline with Tween-80): 88 % of control | T/C (dose: 100.0 mg/kg/injection, schedule: Q01DX001 (ip), vehicle: saline with Tween-80): 88 % of control | T/C (dose: 100.0 mg/kg/injection, schedule: Q01DX009 (ip), vehicle: saline): 99 % of control and 86 % of control | T/C (dose: 100.0 mg/kg/injection, schedule: Q04DX002 (ip), vehicle: alcohol): 93 % of control | T/C [8]: 105 % of control | T/C (dose: 200.0 mg/kg/injection, schedule: Q01DX001 (ip), vehicle: saline with Tween-80): 104 % of control and 87 % of control | T/C (dose: 200.0 mg/kg/injection, schedule: Q01DX009 (ip), vehicle: saline): 93 % of control and 101 % of control | T/C (dose: 200.0 mg/kg/injection, schedule: Q04DX002 (ip), vehicle: alcohol): 90 % of control | T/C (dose: 200.0 mg/kg/injection, schedule: Q04DX003 (ip), vehicle: saline with Tween-80): 97 % of control | T/C (dose: 400.0 mg/kg/injection, schedule: Q01DX001 (ip), vehicle: saline with Tween-80): 106 % of control | T/C (dose: 400.0 mg/kg/injection, schedule: Q04DX002 (ip), vehicle: alcohol): 90 % of control | T/C (dose: 400.0 mg/kg/injection, schedule: Q04DX003 (ip), vehicle: saline with Tween-80): 95 % of control

Brc1cccc[n+]1-c1cccc(-c2cccc(-[n+]3ccccc3Br)c2)c1
T/C (dose: 9.38 mg/kg/injection, schedule: Q01DX001 (ip), vehicle: other): 100 % of control | T/C (dose: 18.75 mg/kg/injection, schedule: Q01DX001 (ip), vehicle: other): 101 % of control

COc1ccccc1C(=O)C(O)c1ccccc1OC (stereo not given)
T/C [9]: 105 % of control | T/C [6]: 101 % of control | T/C [3]: 94 % of control | T/C [7]: 96 % of control | T/C [4]: 96 % of control | T/C [10]: 101 % of control | T/C [5]: 93 % of control

C=C=[CH][Sn]([c]1ccccc1)([c]1ccccc1)[c]1ccccc1
T/C (dose: 12.5 mg/kg/injection, schedule: Q01DX009 (ip), vehicle: Klucel (hydroxypropylcellulose) (HPC)): 100 % of control | T/C (dose: 12.5 mg/kg/injection, schedule: Q04DX003 (ip), vehicle: Klucel (hydroxypropylcellulose) (HPC)): 99 % of control | T/C (dose: 25.0 mg/kg/injection, schedule: Q01DX009 (ip), vehicle: Klucel (hydroxypropylcellulose) (HPC)): 102 % of control | T/C (dose: 25.0 mg/kg/injection, schedule: Q04DX003 (ip), vehicle: Klucel (hydroxypropylcellulose) (HPC)): 106 % of control | T/C [9]: 89 % of control | T/C (dose: 50.0 mg/kg/injection, schedule: Q04DX003 (ip), vehicle: Klucel (hydroxypropylcellulose) (HPC)): 99 % of control

CNC(=O)Oc1ccc2ccccc2c1[N+](=O)[O-]
T/C (dose: 75.0 mg/kg/injection, schedule: Q01DX001 (ip), vehicle: other): 101 % of control

CN(C)CCNc1ccc([N+](=O)[O-])c2sc3ccccc3c(=O)c12
T/C (dose: 5.3 mg/kg/injection, schedule: Q01DX Z (ip), vehicle: methylcellulose (MC)): 94 % of control and 98 % of control | T/C (dose: 8.0 mg/kg/injection, schedule: Q01DX Z (ip), vehicle: carboxymethylcellulose (CMC)): 102 % of control | T/C (dose: 8.0 mg/kg/injection, schedule: Q01DX Z (ip), vehicle: methylcellulose (MC)): 98 % of control and 106 % of control | T/C (dose: 12.0 mg/kg/injection, schedule: Q01DX Z (ip), vehicle: carboxymethylcellulose (CMC)): 118 % of control | T/C (dose: 26.0 mg/kg/injection, schedule: Q01DX Z (ip), vehicle: carboxymethylcellulose (CMC)): 152 % of control | T/C (dose: 27.0 mg/kg/injection, schedule: Q01DX Z (ip), vehicle: carboxymethylcellulose (CMC)): 156 % of control | T/C (dose: 27.0 mg/kg/injection, schedule: Q01DX Z (ip), vehicle: methylcellulose (MC)): 98 % of control and 156 % of control and 216 % of control | T/C (dose: 40.0 mg/kg/injection, schedule: Q01DX Z (ip), vehicle: carboxymethylcellulose (CMC)): 172 % of control | T/C (dose: 40.0 mg/kg/injection, schedule: Q01DX Z (ip), vehicle: methylcellulose (MC)): 111 % of control

O=C(Cl)COc1cccc2ccccc12
T/C [6]: 93 % of control | T/C [7]: 98 % of control | T/C [10]: 101 % of control

Cc1ccc(NC(=O)N2CC2C)cc1NC(=O)N1CC1C (stereo not given)
T/C (dose: 2.5 mg/kg/injection, schedule: Q01DX009 (ip), vehicle: saline): 118 % of control | T/C (dose: 20.0 mg/kg/injection, schedule: Q01DX009 (ip), vehicle: saline): 197 % of control

O=S(=O)(OCCCl)c1ccc(Cl)c(S(=O)(=O)OCCCl)c1
T/C [8]: 97 % of control

C(=C\CSc1ccccc1)/CSc1ccccc1
T/C (dose: 100.0 mg/kg/injection, schedule: Q04DX002 (ip), vehicle: Klucel (hydroxypropylcellulose) (HPC)): 97 % of control | T/C (dose: 200.0 mg/kg/injection, schedule: Q04DX002 (ip), vehicle: Klucel (hydroxypropylcellulose) (HPC)): 94 % of control | T/C (dose: 400.0 mg/kg/injection, schedule: Q04DX002 (ip), vehicle: Klucel (hydroxypropylcellulose) (HPC)): 97 % of control

CC1=C/C(O)CC(=O)Cc2nc(co2)C(=O)N2CCC=C2C(=O)OC(C(C)C)C(C)/C=C\C(=O)NC/C=C\1 (stereo not given)
T/C (dose: 0.5 micrograms/kg/injection, schedule: Q01DX009 (ip), vehicle: saline): 95 % of control | T/C (dose: 1.0 micrograms/kg/injection, schedule: Q01DX009 (ip), vehicle: saline): 93 % of control | T/C (dose: 2.0 micrograms/kg/injection, schedule: Q01DX009 (ip), vehicle: saline): 104 % of control | T/C (dose: 4.0 micrograms/kg/injection, schedule: Q01DX009 (ip), vehicle: saline): 104 % of control

Cc1ccc(Br)cc1C(c1cc(Br)ccc1C)C(O)C(O)C(O)C(O)CO (stereo not given)
T/C (dose: 50.0 mg/kg/injection, schedule: Q01DX001 (ip), vehicle: saline): 106 % of control | T/C (dose: 100.0 mg/kg/injection, schedule: Q01DX001 (ip), vehicle: saline): 106 % of control | T/C (dose: 200.0 mg/kg/injection, schedule: Q01DX001 (ip), vehicle: saline): 110 % of control | T/C (dose: 400.0 mg/kg/injection, schedule: Q01DX001 (ip), vehicle: saline): 98 % of control

O=C(O)c1cccc([N+](=O)[O-])c1I
T/C [1]: 100 % of control | T/C [2]: 101 % of control | T/C (dose: 400.0 mg/kg/injection, schedule: Q01DX009 (ip), vehicle: saline with Tween-80): 97 % of control
